Test system: engineered human embryonic kidney (HEK-293) TGF-β reporter cells
Test: HEK-Blue hTGFβ reporter cell assay (Smad-inducible SEAP, optical density at 650 nm)
Assay type: cell-based
Conditions: 20 µl of a 3µM inhibitor solution in 200 µl total volume, added 1 hour before the test compound; SEQ ID NO:31 at 6.25-150 µg/ml; overnight incubation
Description: Polypeptides of the invention have been tested in the cells above in order to determine cell-surface receptors through which they signal and thereby induce immunotolerance. For this purpose, a peptide of the invention of SEQ ID NO:31 was administered to commercial engineered human embryonic kidney (HEK-293) TGF-β reporter cells that induce the production of Smad-inducible secreted embryonic alkaline phosphatase (SEAP) when human TGF-β triggers a signaling cascade leading to the formation of a Smad3/Smad4 complex which can be monitored by optical density at 650 nm as follows.
In a 96-well plate (200 µl total volume), 20 µl of a solution containing 3µM of the inhibitor LY-364947 in medium, or medium alone, are placed in a well, followed by the addition 160 µl of the HEK-Blue hTGFβ cell suspension. After 1 hour incubation, 20 µl of the test compound or the positive control are added to the wells. […] SEAP activity is assayed from the supernatant of HEK-Blue hTGFb cell by reading the optical density at 650 nm using a spectrophotometer after 3 hours incubation at 37°C with Quanti-blue, a SEAP detection reagent.
In this particular case, the formation of the Smad3/Smad4 complex (illustrated by the measured OD650 as shown on Figure 8) was induced by the presence of SEQ ID NO:31 at the following concentrations: 6.25, 12.5, 25, 50, 75, 100, 125, and 150 µg/ml. […]

Structure (SMILES): c1ccc(-c2nn3c(c2-c2ccnc4cc(OCCN5CCOCC5)ccc24)CCC3)nc1 [LY2109761]
- Smad3/Smad4 signaling cascade induced by SEQ ID NO:31 (SEAP, OD650): antagonized

— patent publication EP4669337B1, “AGENTS USEFUL FOR THE PREVENTION OR TREATMENT OF ALLERGIC & INFLAMMATORY DISORDERS” (ATOPIA THERAPEUTICS SA, priority 2023, dated 2025)
